System: rat dorsal root ganglion (DRG) cells
Assay: Rat dorsal root ganglion (DRG) excitability response to electrical field stimulation
Format: cell-based
Conditions: reference compound, adult rat DRG cells, read-out: Average response (rat DRG excitability)
Experimental: Rat Dorsal Root Ganglion Excitability Response of Representative Compounds Dorsal root ganglions (DRGs) were dissected from adult rats. The tissue was processed, and cells were seeded into cell culture plates (48 center wells of one quadrant in 384-well plates) and cultured for 2 days prior to Electrical field stimulation (EFS). To visualize the neuronal excitability response, intracellular Ca^+2 transients were monitored using the Ca^+2 indicator, Ca5. Ca5 was added to the cultures 1 h prior to EFS. Representative compounds of the invention (i.e., test compounds) and reference compound, tetracaine, were added in concentration-response format encompassing six concentrations, performed in duplicate. The highest concentration tested was typically 30 μM with 1 in 3 dilutions generating the subsequent concentrations.
Effects on DRG excitability by the test compounds and standard were evaluated using four EFS protocols as disclosed in Table 2.
Experimental results were performed using two seperate sets of plates using separate test compound and standard dilutions, to provide n=2. In the first set of experiments, compounds were added 24 h prior to EFS to increase the possibility to also detect more long-term compound effects. In the second set of experiments the compounds were added directly prior to EFS. Excitability response to EFS was analyzed as the average fluorescence ratio (peak/baseline) change per well. All plates were evaluated using high content imaging equipment post-EFS, imaging the Ca5 background staining to detect any possibile compound-related toxic effects.
Average response by the reference compound, tetracaine, was 4.05 μM.

SMILES | EC50 [µM]
CCCCNc1ccc(C(=O)OCCN(C)C)cc1 [tetracaine, reference compound] | 4.05

System: not listed separately
Assay: Metabolism by human liver microsomes
Format: in vitro ADME
Conditions: human liver microsomes 1 mg/mL protein, 10 μM, in the presence of NADPH, LC-MS/MS
Experimental: Representative compounds of the invention (i.e., test compounds) and the positive control, 7-ethoxycoumarin, were prepared as stock solutions at 10 mM in DMSO and eventually diluted to 10 μM in the test plate, with an appropriate amount of acetonitrile and tris HCl buffer. Final DMSO and acetonitrile concentrations were […] and 0.5% respectively. NADPH was prepared in tris HCl buffer to a stock of 10 mM. A frozen aliquot of liver microsomes was retrieved from the freezer (−80° C.) and thawed by placing the tube on wet ice. After thawing, the tubes were gently mixed and the required amount, transferred to tris HCl buffer. Test compounds or positive control were pre-incubated, separately, for 10 minutes, with liver microsomes (1 mg/mL protein), at 37° C., in 100 mM Tris HCl at pH 7.5. After preincubation the reaction was started by adding 1 mM NADPH (pre-equilibrated to 30° C.) and the reaction allowed to proceed for 60 minutes. At 60 minutes, a 50 μL aliquot was removed and quenched with 200 uL of acetonitrile containing a mixture of internal standards (Tolbutamide (500 ng/mL) and Telmistartan (500 ng/mL)) and vortexed then centrifuged at 4000 rpm for 10 minutes (Eppendorf 5810R). The supernatant was transferred to a 96 well plate for LC-MS/MS analysis.
An LC-MS/MS method was devised for the test compounds and the control, using a AB Sciex API 4000 system coupled to a NEXAR™ UHPLC (Shimadzu) system. Analytes were separated on a Phenomenex Kinetex C18 column (50×2.1 mm, 5 μm) using a gradient that was appropriate for each compound, at a flow rate of 1 ml/minute, utilizing a mobile phase of 0.1% formic acid in MILLI-Q™ water (A) and 0.1% formic acid in acetonitrile (B). The MS instrument was operated in positive mode (ESI+)/negative (ESI−). The multiple reaction monitoring (MRM) transition for test and control compounds was used for the LC-MS/MS analysis. MRM transitions for control compound 7-ethoxycoumarinm were Quadropole 1: 191.0, Quadropole 3:163.0, dwell time: 75 msec, using curtain gas settings of 5 V, ion-spray voltage of 5500 V, temperature of 50° C. and gas settings for nebulizer and auxiliary set to 30 and 40 psi, respectively. The interface heater was kept on. Entrance potential and collision cell exit potential were varied to tune for a specific compound.
Using a suitable LC-MS/MS method, the percentage of drug remaining at 60 minutes ([…]) was assessed by comparing the average analyte to internal standard area ratio at 60 minutes to the average analyte to internal standard area ratio at 0 time control, as a percentage, from a 5 to 10 μL sample injection.
According to the above assay, the test compounds listed in Table 7 below were active in the Human liver microsome assay at 10 μM and the % of drug remaining after 60 minutes (PDR60), in the presence of NADPH, was assessed by LC-MS/MS. Average PDR60 for the standard compound, 7-ethoxycoumarin was <=65% in the presence of NADPH. Scoring for the test compounds, in the presence of NADPH, was as follows: “A” represents a PDR60 of 81 to 100%, “B” represents a PDR60 of 61 to 80%, “C” represents a PDR60 of 31 to 60% and “D” represents a PDR60 of 0 to 30%.

SMILES | Scoring: % of drug remaining after 60 minutes (PDR60)
C=C1CC[C@H]2[C@H](CN)[C@@H]([C@@]3(C)Cc4cnn(-c5ccc(OC)cc5)c4C[C@@H]3CO)CC[C@]12C [Ia-14, ((5R,6S)-5-((3aS,4R,5S,7aS)-4-(aminomethyl)-7a-methyl-1-methyleneoctahydro-1H-inden-5-yl)-1-(4-methoxyphenyl)-5-methyl-4,5,6,7-tetrahydro-1H-indazol-6-yl)methanol] | D (“D” represents a PDR60 of 0 to 30%)
C=C1CC[C@H]2[C@H](CN)[C@@H]([C@@]3(C)Cc4cn(-c5ccc(F)c(F)c5)nc4C[C@@H]3CO)CC[C@]12C [Ia-23, ((5R,6S)-5-((3aS,4R,5S,7aS)-4-(aminomethyl)-7a-methyl-1-methyleneoctahydro-1H-inden-5-yl)-2-(3,4-difluorophenyl)-5-methyl-4,5,6,7-tetrahydro-2H-indazol-6-yl)methanol] | C (“C” represents a PDR60 of 31 to 60%)
C=C1CC[C@H]2[C@H](CN)[C@@H]([C@@]3(C)Cc4cnn(-c5ccc(F)cn5)c4C[C@@H]3CO)CC[C@]12C [Ia-30, ((5R,6S)-5-((3aS,4R,5S,7aS)-4-(aminomethyl)-7a-methyl-1-methyleneoctahydro-1H-inden-5-yl)-1-(5-fluoropyridin-2-yl)-5-methyl-4,5,6,7-tetrahydro-1H-indazol-6-yl)methanol] | D (“D” represents a PDR60 of 0 to 30%)
C=C1CC[C@H]2[C@H](CN)[C@@H]([C@@]3(C)Cc4cnn(-c5cccc(F)c5)c4C[C@@H]3CO)CC[C@]12C [Ia-40, ((5R,6S)-5-((3aS,4R,5S,7aS)-4-(aminomethyl)-7a-methyl-1-methyleneoctahydro-1H-inden-5-yl)-1-(3-fluorophenyl)-5-methyl-4,5,6,7-tetrahydro-1H-indazol-6-yl)methanol] | D (“D” represents a PDR60 of 0 to 30%)
COc1ccc(-n2ncc3c2C[C@H](CO)[C@@](C)([C@H]2CC[C@]4(C)[C@@H](C)CC[C@H]4[C@@H]2CN)C3)cc1 [Ia-49, ((5R,6S)-5-((1S,3aS,4S,5S,7aR)-4-(aminomethyl)-1,7a-dimethyloctahydro-1H-inden-5-yl)-1-(4-methoxyphenyl)-5-methyl-4,5,6,7-tetrahydro-1H-indazol-6-yl)methanol] | D (“D” represents a PDR60 of 0 to 30%)
C[C@]1([C@H]2CC[C@]3(C)C(c4ccccc4)=CC[C@H]3[C@@H]2CN)Cc2cn[nH]c2C[C@@H]1CO [Ia-6, ((5R,6S)-5-((3aS,6S,7R,7aS)-7-(aminomethyl)-3a-methyl-3-phenyl-3a,4,5,6,7,7a-hexahydro-1H-inden-6-yl)-5-methyl-4,5,6,7-tetrahydro-1H-indazol-6-yl)methanol] | A (“A” represents a PDR60 of 81 to 100%)
C=C1CC[C@H]2[C@H](CN)[C@@H]([C@@]3(C)Cc4cnn(-c5ccc(F)cc5F)c4C[C@@H]3CO)CC[C@]12C [Ia-34, ((5R,6S)-5-((3aS,4R,5S,7aS)-4-(aminomethyl)-7a-methyl-1-methyleneoctahydro-1H-inden-5-yl)-1-(2,4-difluorophenyl)-5-methyl-4,5,6,7-tetrahydro-1H-indazol-6-yl)methanol] | D (“D” represents a PDR60 of 0 to 30%)
C=C1CC[C@H]2[C@H](CN)[C@@H]([C@@]3(C)Cc4cnn(-c5ccccc5F)c4C[C@@H]3CO)CC[C@]12C [Ia-32, ((5R,6S)-5-((3aS,4R,5S,7aS)-4-(aminomethyl)-7a-methyl-1-methyleneoctahydro-1H-inden-5-yl)-1-(2-fluorophenyl)-5-methyl-4,5,6,7-tetrahydro-1H-indazol-6-yl)methanol] | D (“D” represents a PDR60 of 0 to 30%)
C=C1CC[C@H]2[C@H](CN)[C@@H]([C@@]3(C)Cc4cn(Cc5ccc(F)cc5)nc4C[C@@H]3CO)CC[C@]12C [Ia-19, ((5R,6S)-5-((3aS,4R,5S,7aS)-4-(aminomethyl)-7a-methyl-1-methyleneoctahydro-1H-inden-5-yl)-2-(4-fluorobenzyl)-5-methyl-4,5,6,7-tetrahydro-2H-indazol-6-yl)methanol] | B (“B” represents a PDR60 of 61 to 80%)
C[C@]1([C@H]2CC[C@]3(C)c4[nH]ncc4C[C@H]3[C@@H]2CN)Cc2cn[nH]c2C[C@@H]1CO [Ia-7, ((5R,6S)-5-((4aS,5R,6S,8aS)-5-(aminomethyl)-8a-methyl-1,4,4a,5,6,7,8,8a-octahydroindeno[1,2-c]pyrazol-6-yl)-5-methyl-4,5,6,7-tetrahydro-1H-indazol-6-yl)methanol] | B (“B” represents a PDR60 of 61 to 80%)
C=C1CC[C@H]2[C@H](CN)[C@@H]([C@@]3(C)Cc4cn(Cc5ccc(OC)cc5)nc4C[C@@H]3CO)CC[C@]12C [Ia-17, ((5R,6S)-5-((3aS,4R,5S,7aS)-4-(aminomethyl)-7a-methyl-1-methyleneoctahydro-1H-inden-5-yl)-2-(4-methoxybenzyl)-5-methyl-4,5,6,7-tetrahydro-2H-indazol-6-yl)methanol] | C (“C” represents a PDR60 of 31 to 60%)
C=C1CC[C@H]2[C@H](CN)[C@@H]([C@@]3(C)Cc4cn(C5CCC(F)(F)CC5)nc4C[C@@H]3CO)CC[C@]12C [Ia-39, ((5R,6S)-5-((3aS,4R,5S,7aS)-4-(aminomethyl)-7a-methyl-1-methyleneoctahydro-1H-inden-5-yl)-2-(4,4-difluorocyclohexyl)-5-methyl-4,5,6,7-tetrahydro-2H-indazol-6-yl)methanol] | A (“A” represents a PDR60 of 81 to 100%)
C=C1CC[C@H]2[C@H](CN)[C@@H]([C@@]3(C)Cc4cn(-c5ccc(F)cc5)nc4C[C@@H]3CO)CC[C@]12C [Ia-13, ((5R,6S)-5-((3aS,4R,5S,7aS)-4-(aminomethyl)-7a-methyl-1-methyleneoctahydro-1H-inden-5-yl)-2-(4-fluorophenyl)-5-methyl-4,5,6,7-tetrahydro-2H-indazol-6-yl)methanol] | A (“A” represents a PDR60 of 81 to 100%)
C=C1CC[C@H]2[C@H](CN)[C@@H]([C@@]3(C)Cc4cn(-c5ccc(Oc6ccc(F)cc6)cc5)nc4C[C@@H]3CO)CC[C@]12C [Ia-25, ((5R,6S)-5-((3aS,4R,5S,7aS)-4-(aminomethyl)-7a-methyl-1-methyleneoctahydro-1H-inden-5-yl)-2-(4-(4-fluorophenoxy)phenyl)-5-methyl-4,5,6,7-tetrahydro-2H-indazol-6-yl)methanol] | B (“B” represents a PDR60 of 61 to 80%)

Same assay, conditions: standard compound; human liver microsomes, 10 μM, in the presence of NADPH, 60 minutes

SMILES | Average PDR60
CCOc1ccc2ccc(=O)oc2c1 [7-ethoxycoumarin, reference compound] | <= 65%

Source: US11773108B2, “Indene derivatives useful in treating pain and inflammation” (TARO PHARMACEUTICALS INC., priority 2018, dated 2023)
